Here are results for five compounds from patent US4990522A, “Esterified ephedrine derivatives with prolonged antiulcer activity” (Establissement Texcontor, priority 1987, dated 1991).

The test system of data set [1] is ulcers induced by ligature of the pylorus. Put plainly: Antiulcer activity against ulcers induced by ligature of the pylorus (Shay test). Conditions: rat, oral. The data set is classed as in vivo, rat (Sprague Dawley). The method, then: 2. ANTIULCER ACTIVITY against ulcers induced by ligature of the pylorus (Shay test): Groups of 10 Sprague Dawley rats of body weight between 200 and 250 grams were placed in cages under conditions of standard temperature (21°±2° C.), standard relative humidity (60-70%) and standard light (12 hours per day).
The animals were fed with rat pellets and with water at will.
The derivatives to be tested were administered orally 6, 12, 24 and 36 hours before ligature of the pylorus, after dispersion in physiological solution using Tween 80 as dispersant in a quantity of 1% and carboxymethylcellulose in a quantity of 0.2%. The volume administered was 10 ml/kg.
Before ligature, the rats had been kept without food for 18 hours but with free access to water, the pylorus ligature then being made under ether anesthetic, with suture of the peritoneum and of the abdominal wall.
The animals were then kept without food or water, and 18 hours after ligature were sacrificed using chloroform, their stomachs then being withdrawn and opened along the small curvature.
The gastric surface was extended to observe the ulcers, the evaluation being made by measuring their maximum width.

The nature of data set [2]: Acute toxicity in rats, endoperitoneal administration (LD50, Lichtfield and Wilcoxon). Also noted: species or system rat (Wistar). To be noted: in vivo, ip, rat, mortality within eight days. As for the experimental part:
(§1) Acute toxicity was determined on Swiss albino mice having an average weight of about 20 grams and on Wistar rats having an average weight of 150±10 grams by endoperitoneal administration. All animals were kept fasting for 12 hours before the trial. For the trial, 10 animals, namely 5 males and 5 females, were used for each dose level.
(§2) The LD50 values, expressed as mg/kg, are calculated on the basis of the mortality determined within eight days from administration, in accordance with the Lichtfield and Wilcoxon method.

Data set [3] deals with ulcers induced by cold stress. In words: Antiulcer activity against ulcers induced by cold stress. The data set is classed as in vivo, rat (Wistar). To be noted: rat, oral. The method, then: 3. ANTIULCER ACTIVITY against ulcers induced by cold stress: This trial was carried out on Wistar rats weighing about 300 grams each.
The animals were divided randomly into groups of 10 animals each and kept without food for 18 hours before the trial, but had unrestricted water. […]
After ligature, the animals were placed in a refrigerator at a temperature of between 2° C. and 4° C. for two hours.
After this time the rats were sacrificed, their stomachs were withdrawn and opened along the small curvature, and the gastric mucosa checked.
The number of ulcers was counted and their relative diameters measured. From these individual data the mean value for each treatment group was obtained and the inhibition capacity calculated as a percentage relative to the control group, using the following formula: [formula] where C is the mean value in mm for the control group and T the mean value for the group treated with the derivative under examination.

The nature of data set [4]: Acute toxicity in mice, endoperitoneal administration (LD50, Lichtfield and Wilcoxon). Set-up: species or system mouse (Swiss albino). To be noted: in vivo, ip, mouse, mortality within eight days. As for the experimental part:
as §1, §2

The conditions of data set [5]: prior art, cited from earlier work.
The conditions of data set [6]: species not given, prior art; cited from earlier work.
Where [7] appears, read: 6 h before pylorus ligature, read-out: ED50 by oral administration at 6 h before pylorus ligature.
Where [8] appears, read: 12 h before pylorus ligature, * P < 0.05 versus WAS 4303 (so in the source), read-out: ED50 by oral administration at 12 h before pylorus ligature.
[9] abbreviates: 24 h before pylorus ligature, * P < 0.05 versus WAS 4303 (so in the source), read-out: ED50 by oral administration at 24 h before pylorus ligature.
Setting [10] is: 36 h before pylorus ligature, * P < 0.05 versus WAS 4303 (so in the source), read-out: ED50 by oral administration at 36 h before pylorus ligature.
[11] abbreviates: 6 h before cold stress, read-out: ED50 by oral administration at 6 h before commencement of cold stress.
Where [12] appears, read: 12 h before cold stress, * P < 0.05 versus WAS 4303 (so in the source), read-out: ED50 by oral administration at 12 h before commencement of cold stress.
[13] abbreviates: 24 h before cold stress, * P < 0.05 versus WAS 4303 (so in the source), read-out: ED50 by oral administration at 24 h before commencement of cold stress.
[14] abbreviates: 36 h before cold stress, * P < 0.05 versus WAS 4303 (so in the source), read-out: ED50 by oral administration at 36 h before commencement of cold stress.

Molecules are shown by their SMILES. Where two headings read alike, the source gives them in different places.

For `CCCCCCCCCC(=O)O[C@H](c1ccccc1)[C@H](C)N(C)CC=C1c2ccccc2CCc2ccccc21` (relative stereo) [ET 2001], the ED50 in data set [1] (setting [7]) turned out to be 0.5 mg/kg; in data set [1] (setting [8]) it was 0.5 mg/kg; in data set [1] (setting [9]), 0.7 mg/kg; in data set [1] (setting [10]), 1.3 mg/kg; in data set [3] (setting [11]), 0.4 mg/kg; in data set [3] (setting [12]), 0.9 mg/kg. Moreover, the ED50 in data set [3] (setting [13]) was 1.2 mg/kg; in data set [3] (setting [14]), 2.1 mg/kg. The figures for the LD50 at 192 h in data set [2] and in data set [4] were 510 mg/kg and 585 mg/kg, respectively.
For the compound `C[C@@H]([C@H](OC(=O)c1cccnc1)c1ccccc1)N(C)CC=C1c2ccccc2CCc2ccccc21` (relative stereo) [ET 2003], the ED50 in data set [1] (setting [7]) came out at 0.4 mg/kg; in data set [1] (setting [8]), 0.4 mg/kg; in data set [1] (setting [9]), 0.7 mg/kg; in data set [1] (setting [10]), 1.2 mg/kg; in data set [3] (setting [11]) it was 0.6 mg/kg; in data set [3] (setting [12]), 0.9 mg/kg. Besides, the values for the ED50 in data set [3] (setting [13]) and in data set [3] (setting [14]) were 1.3 mg/kg and 1.7 mg/kg, respectively. The LD50 at 192 h in data set [2] stood at 618 mg/kg; in data set [4] it was 580 mg/kg.
`C[C@@H]([C@H](OC(=O)c1cccs1)c1ccccc1)N(C)CC=C1c2ccccc2CCc2ccccc21` (relative stereo) [ET 2004]: the ED50 turned out to be 0.5 mg/kg in data set [1] (setting [7]); 0.4 mg/kg in data set [1] (setting [8]); 0.6 mg/kg in data set [1] (setting [9]); 1 mg/kg in data set [1] (setting [10]); 0.6 mg/kg in data set [3] (setting [11]); 0.8 mg/kg in data set [3] (setting [12]). The ED50 in data set [3] (setting [13]) came to 1.4 mg/kg; in data set [3] (setting [14]) it was 1.8 mg/kg. Also, the LD50 at 192 h in data set [2] was found to be 681 mg/kg; in data set [4], 630 mg/kg.
For `C[C@@H]([C@H](O)c1ccccc1)N(C)CC=C1c2ccccc2CCc2ccccc21` (relative stereo) [WAS 4304, reference compound], the ED50 was 0.2 mg/kg in data set [1] (setting [7]); 1.1 mg/kg in data set [1] (setting [8]); 1.8 mg/kg in data set [1] (setting [9]); 2.4 mg/kg in data set [1] (setting [10]); 0.4 mg/kg in data set [3] (setting [11]); 1.6 mg/kg in data set [3] (setting [12]). For the same compound, the ED50 in data set [3] (setting [13]) was found to be 2.5 mg/kg; in data set [3] (setting [14]), 2.8 mg/kg. Moreover, the “antiulcer activity when administered intraperitoneally” value in data set [5] (intraperitoneal, experimental tests) is listed as “very interesting antiulcer activity”. Besides, in data set [5], the duration of activity entry was “very limited duration”. Further, the “LD50 for intraperitoneal administration” value in data set [6] is 115 mg/kg. Besides, the values for the LD50 at 192 h in data set [2] and in data set [4] were 87 mg/kg and 127 mg/kg, respectively.
For the compound `C[C@@H]([C@H](OC(=O)C(N)Cc1cnc[nH]1)c1ccccc1)N(C)CC=C1c2ccccc2CCc2ccccc21` (some centres unmarked) [ET 2002], the ED50 in data set [1] (setting [7]) amounted to 0.4 mg/kg; in data set [1] (setting [8]), 0.5 mg/kg; in data set [1] (setting [9]), 0.8 mg/kg; in data set [1] (setting [10]) it was 1.1 mg/kg; in data set [3] (setting [11]), 0.7 mg/kg; in data set [3] (setting [12]) it was 1 mg/kg. In addition, the ED50 in data set [3] (setting [13]) was 1.4 mg/kg; in data set [3] (setting [14]), 1.9 mg/kg. The LD50 at 192 h in data set [2] worked out at 590 mg/kg; in data set [4], 535 mg/kg.
